# Test results from patent US5453417A, “Process for the phosphorylation of insulin and product produced thereby” (The Hospital for Sick Children, priority 1991, dated 1995).
# Assays:
# Assay type in all cases: in vivo, dog
# [1] = test system: normal, fasted, beagle dogs; assay: intravenous bolus, rate of decline of plasma glucose in 15 minutes following the injection; conditions: i.v. bolus, phosphorylated insulin = product of Example 2
# Method: Phosphorylated insulin produced by the process described in Example 2 and regular insulin (Iletin II pure Pork) were injected as an intravenous bolus into 4 normal, fasted, beagle dogs. Each insulin was injected at a wide range of dosage with not more than one experiment on each dog on any given day. The plasma glucose of each dog was measured (YSI) at 2 minute intervals for 15 minutes following the injection and the rate of decline of glucose from normal was determined in this period for each individual insulin dose. When the data from FIG. 8 are analysed, it can be shown that the % change in insulin dose required to produce a given increase in glucose drop (glucose disposal) is greater for phosphorylated than for regular (unmodified) insulin. Thus, for example, in Table 4, a 28% increase in dose of regular insulin from that which produced a glucose drop of 3.5 mg %/min., caused the "rate of drop of glucose" to increase from 3.5 to 4.0 mg %/min. A 66 % increase in dose of phosphorylated insulin was required to produce the same effect.
# [2] = test system: diabetic (pancreatectomized) dogs; assay: continuous insulin infusion at Max Rate and reduced rates, plasma glucose plateau under fasting conditions
# Method: The initial step in the protocol involved determining the required insulin infusion rate of either regular or phosphorylated insulin that would, under fasting conditions, reduce plasma glucose from normal at 7:30 a.m. to a plateau of 60 mg %, 2-4 hours later. […] The rate that produced this reduction of blood glucose to 60 mg % was termed "Max Rate".
# On subsequent days, identical experiments were conducted on all 4 diabetic dogs with the exception that the animals received a reduced rate of insulin infusion equal to either 1) 62% of the "Max Rate" as shown in FIG. 6 or 2) 36% of the "Max Rate" as shown in FIG. 7.
# In this test, the dogs infused with regular insulin reached a glucose threshold of 180 mg % (renal threshold at which the kidneys begin to spill glucose into the urine). The phosphorlated infused dogs reached a lower average glucose level of 120-130 mg %.
# All protocols described were conducted in triplicate on all dogs.
# [3] = test system: diabetic dogs; assay: continuous 24 hour infusion, increase of infusion rate needed to lower 8 a.m. fasting plasma glucose; conditions: two diabetic dogs, phosphorylated insulin = product prepared as Example 6 (FIG. 12)
# Method: Two diabetic dogs were fed a single daily meal of 1100 kcal at 2:00 p.m. daily and given regular (i.e. fast acting) insulin at meal time.
# In addition, dogs were infused continuously, 24 hours per day with either regular or phosphorylated insulin (product prepared as example 6).
# During repeated experiments the minimum insulin infusion rate required to produce a mean 8 a.m. fasting plasma glucose of 95 mg % was determined for each insulin.
substance,measurement,setting,value
"regular insulin: regular (unmodified) insulin, fast acting; Iletin II pure Pork in Example 32 [reference compound]",Required % Increase In Insulin Dose,[1]; change in rate of drop of glucose from 1.0 to 1.5 mg %/min,49%
same,Required % Increase In Insulin Dose,[1]; change in rate of drop of glucose from 1.5 to 2.0 mg %/min,33%
same,Required % Increase In Insulin Dose,[1]; change in rate of drop of glucose from 2.0 to 2.5 mg %/min,25%
same,Required % Increase In Insulin Dose,[1]; change in rate of drop of glucose from 2.5 to 3.0 mg %/min,20%
same,Required % Increase In Insulin Dose,[1]; change in rate of drop of glucose from 3.0 to 3.5 mg %/min,39%
same,Required % Increase In Insulin Dose,[1]; change in rate of drop of glucose from 3.5 to 4.0 mg %/min,28%
same,Required % Increase In Insulin Dose,[1]; change in rate of drop of glucose from 4.0 to 4.5 mg %/min,34%
same,plasma glucose plateau,"[2]; infusion at Max Rate, fasting, last 2 hours, phosphorylated insulin = product of Example 3, 4 diabetic dogs (FIG. 5)",60 mg %
same,average glucose level reached,"[2]; infusion rate reduced to 36% of Max Rate, phosphorylated insulin = product of Example 3 (FIG. 7)",180 mg %
same,average plasma glucose plateau,"[2]; infusion rate reduced to 62% of Max Rate, phosphorylated insulin = product of Example 3 (FIG. 6)",150 mg %
same,increase of insulin infusion rate required to drop the fasting glucose from 95 to 70 mg %,[3],20%
